Laboratory results taken from US8080577B2, “Diindolylmethane formulations for the treatment of leiomyomas” (Bioresponse, L.L.C., priority 2004, dated 2011).
“Also recorded” adds a separate entry of the source.

Legend:
Assay type in all cases: in vivo, human
uterine leiomyomas = assay: Oral absorption-enhanced DIM in women with uterine leiomyomas, tumor volume by serial pelvic ultrasound; settings: for Post-DIM Treatment Tumor Volume: oral absorption-enhanced DIM
Method: Expected results are clinical improvement in symptoms and reduction of leiomyoma size documented in serial sonograms. […] Women with uterine leiomyomas have been selected based on the findings of abnormal uterine sonograms showing measurable leiomyoma documented on more than one occasion. Three subjects were proceeding to provide a baseline 12-hour urine collection and began to take absorbable DIM 150 to 450 mg [37.5-112 mg actual DIM] twice daily for 3-6 months. Two women have completed participation in a preliminary study, completing 2 and 6 month treatment periods. Subject A was a multiparous person with regular menstrual periods, taking thyroid hormone replacement to correct primary hypothyroidism and using no other medications. Subject B was a person taking no medications with regular periods. After informed consent, a pretreatment ultrasound was obtained for each subject. Each subject provided a 12 or 24 hour urine specimen which was frozen. Subject A began taking 2 capsules twice daily of absorption-enhanced DIM (BioResponse, LLC, Boulder Colo.) providing DIM at […]. Subject B took 3 capsules twice daily of absorption-enhanced DIM (BioResponse, LLC, Boulder Colo.) providing DIM at […]. After 2 months of treatment, Subject A was re-evaluated by the same ultrasound technician using the same equipment and at the same phase of their menstrual cycle. A post treatment urine was also obtained, collected at the same point in the menstrual cycle as the baseline urine sample. Similarly, Subject B was re-evaluated after 6 months of treatment using absorption-enhanced DIM (BioResponse-DIM). They took a higher twice daily dose providing […]. Their re-evaluation included pelvic ultrasonography following a series of 3 pre-treatment pelvic ultrasound evaluations all performed with the same equipment. Like Subject A, Subject B provided a before and after DIM treatment urine sample. The pelvic ultrasound data were analysed using a mathematical formula to calculate the pre-treatment and post-treatment volume of individual leiomyoma based on the widest diameter and the diameter perpendicular to this measured in centimeters (cm). A calculation of individual tumor volume was performed, treating each tumor as an ovoid mass, using the formula: V=4/3π(H/2)^2(L/2), where V=volume in cubic centimeters (cm^3), H=tumor height in centimeters (cm), and L=tumor length in centimeters (cm). This method provided individual tumor volumes in cubic centimeters (cm^3).

[1] = test system: estrogen metabolites in urine; assay: GCMS assay of urinary estrogen metabolites before and after DIM treatment; settings: after vs before DIM
Method: After informed consent, a pretreatment ultrasound was obtained for each subject. Each subject provided a 12 or 24 hour urine specimen which was frozen. Subject A began taking 2 capsules twice daily of absorption-enhanced DIM (BioResponse, LLC, Boulder Colo.) providing DIM at […]. Subject B took 3 capsules twice daily of absorption-enhanced DIM (BioResponse, LLC, Boulder Colo.) providing DIM at […]. After 2 months of treatment, Subject A was re-evaluated by the same ultrasound technician using the same equipment and at the same phase of their menstrual cycle. A post treatment urine was also obtained, collected at the same point in the menstrual cycle as the baseline urine sample. Similarly, Subject B was re-evaluated after 6 months of treatment using absorption-enhanced DIM (BioResponse-DIM). They took a higher twice daily dose providing […]. Their re-evaluation included pelvic ultrasonography following a series of 3 pre-treatment pelvic ultrasound evaluations all performed with the same equipment. Like Subject A, Subject B provided a before and after DIM treatment urine sample.
The urine samples were tested at the Bradlow/Sepkovic Laboratory, Hackensack University Medical Center, Hackensack, N.J. The technique utilized was an established gas chromatography-mass spectrometry (GCMS) assay for estradiol (E2), estrone (E1), 2-hydroxy estrone (2OH-E1), 4-hydroxy estrone (4OH-E1), 16-hydroxy estrone (16OH-E1), and estriol (E3) in urine (Michnovicz et al., 1997, J Natl Cancer Inst. 89(10):718-23). […] Laboratory analysis is expected to show an increase in 2-hydroxy estrone, and a decrease in 16-hydroxy estrone, as measured in pre-treatment as compared to post-treatment urine samples. […] Results of before and after DIM treatment are presented in Table 8, showing the metabolites of interest as a percent of the total estrogen metabolites measured and as ratios of the amounts of 2OH-E1 to 16OH-E1 (2OH-E1/16OH-E1) determined for each sample. […]

uterine leiomyoma = assay: Clinical case: oral absorption-enhanced DIM in a person with symptomatic uterine leiomyoma; settings: after two months
Method: A person was symptomatic from uterine leiomyoma, experiencing painful menses with excessive bleeding, frequency of urination, and inability to exercise due to tiredness. […] A blood test indicated mild anemia. […] The patient initiated therapy with capsules of DIM, formulated for enhanced absorption as described in Example 1. A dose of 120 mg of DIM formulation, given three times per day, delivering 30 mg of actual DIM per dose, was used.

[2] = test system: estrogen metabolites in urine; assay: GCMS assay of urinary estrogen metabolites before and after DIM treatment
[3] = 30 mg actual DIM three times per day
[4] = Subject A, 200 mg/day DIM, taken for 2 months
[5] = Subject B, 300 mg/day DIM, taken for 6 months

In the case of `c1ccc2c(Cc3c[nH]c4ccccc34)c[nH]c2c1` [DIM, 3,3′-diindolylmethane], the “average percent reduction in tumor volume” value (uterine leiomyomas; Subject A, 2 month treatment) is reported as 33.5%, the “Percent Decrease in Tumor Volume” value (uterine leiomyomas; Subject A, Tumor 1, oral DIM 200 mg/day, 2 months) is reported as 83.11% and the “Post-DIM Treatment Tumor Volume” value (uterine leiomyomas; Subject A, Tumor 1, 200 mg/day DIM, 2 months) is reported as 3.783 cm^3. The “Percent Decrease in Tumor Volume” value (uterine leiomyomas; Subject A, Tumor 2, oral DIM 200 mg/day, 2 months) was 2.06%, the “Post-DIM Treatment Tumor Volume” value (uterine leiomyomas; Subject A, Tumor 2, 200 mg/day DIM, 2 months) was 114.4901 cm^3 and the “Percent Decrease in Tumor Volume” value (uterine leiomyomas; Subject A, Tumor 3, oral DIM 200 mg/day, 2 months) was 15.32%. The “Post-DIM Treatment Tumor Volume” value (uterine leiomyomas; Subject A, Tumor 3, 200 mg/day DIM, 2 months) was 53.2 cm^3, the “average reduction in tumor volume” value (uterine leiomyomas; Subject B, 6 month treatment) was 78.6% and the “Percent Decrease in Tumor Volume” value (uterine leiomyomas; Subject B, Tumor 1, oral DIM 300 mg/day, 6 months) was 71.9605%. For the same molecule, the “Post-DIM Treatment Tumor Volume” value (uterine leiomyomas; Subject B, Tumor 1, 300 mg/day DIM, 6 months) was 5.575 cm^3, the “Percent Decrease in Tumor Volume” value (uterine leiomyomas; Subject B, Tumor 2, oral DIM 300 mg/day, 6 months) was 47.75% and the “Post-DIM Treatment Tumor Volume” value (uterine leiomyomas; Subject B, Tumor 2, 300 mg/day DIM, 6 months) was 1.877 cm^3. The “Percent Decrease in Tumor Volume” value (uterine leiomyomas; Subject B, Tumor 3, oral DIM 300 mg/day, 6 months) was 38.51%, the “Post-DIM Treatment Tumor Volume” value (uterine leiomyomas; Subject B, Tumor 3, 300 mg/day DIM, 6 months) was 6.094 cm^3 and the “Percent Decrease in Tumor Volume” value (uterine leiomyomas; Subject B, Tumor 4, oral DIM 300 mg/day, 6 months) was 53.06%. For the same molecule, the “Post-DIM Treatment Tumor Volume” value (uterine leiomyomas; Subject B, Tumor 4, 300 mg/day DIM, 6 months) was 0.8849 cm^3, the “Percent Decrease in Tumor Volume” value (uterine leiomyomas; Subject B, Tumor 5, oral DIM 300 mg/day, 6 months) was 62.41% and the “Post-DIM Treatment Tumor Volume” value (uterine leiomyomas; Subject B, Tumor 5, 300 mg/day DIM, 6 months) was 0.7964 cm^3. The “leiomyoma size by serial pelvic ultrasound” value (uterine leiomyomas; preliminary treatment of women with oral DIM) was “meaningful reduction of leiomyoma size; also recorded: consistent reduction of intra-uterine leiomyoma size”, the “side effects associated with reduction in leiomyoma volume” value (uterine leiomyomas; women treated with oral DIM, 2 and 6 months) was “not associated with amenorrhea, hypo-estrogenemia, hot flashes, or other reported side effects” and the “change in 16OH-E1” value ([1]; Subject A) was “treatment related reduction”. The “change in 4OH-E1” value ([1]; Subject B, treated at a higher dose) was “treatment related reduction”, the “change in 2OH-E1 and the 2OH-E1/16OH-E1 ratio” value ([1]; both Subjects) was “large treatment related increases” and the repeat abdominal exam (uterine leiomyoma; [3]) was “no visible or palpable pelvic masses”. The repeat pelvic exam (uterine leiomyoma; [3]) was “normal appearing uterine cervix and a palpable uterus of much reduced size”, the “myoma-related symptoms described by the patient” value (uterine leiomyoma; 120 mg DIM formulation (30 mg actual DIM) three times per day) was “normal menstrual flow with normal levels of discomfort and improved energy” and the “2OH-E1/16OH-E1 ratio, After DIM” value [2, 4] was 1.7. For the same molecule, the “2OH-Estrone (2OH-E1), percent of total estrogen metabolites measured, After DIM” value [2, 4] was 8.3%, the “4OH-Estrone (4OH-E1), percent of total estrogen metabolites measured, After DIM” value [2, 4] was 0.7% and the “16OH-Estrone (16OH-E1), percent of total estrogen metabolites measured, After DIM” value [2, 4] was 4.9%. For the same molecule, the “2OH-E1/16OH-E1 ratio, After DIM” value [2, 5] was 9.5, the “2OH-Estrone (2OH-E1), percent of total estrogen metabolites measured, After DIM” value [2, 5] was 35% and the “4OH-Estrone (4OH-E1), percent of total estrogen metabolites measured, After DIM” value [2, 5] was 1.7%.
